Literature values, collected in US11951100B2, “Formulations of RBP4 inhibitors and methods of use” (Belite Bio, LLC, priority 2019, dated 2024).

Conditions: sub-population with significant RBP4 lowering; cited from earlier work

For `CC1=C(/C=C/C(C)=C/C=C/C(C)=C/C(=O)Nc2ccc(O)cc2)C(C)(C)CCC1` [fenretinide], the lesion growth is listed as “slower lesion growth”.
